{"source": "patent US20100040566A1", "about": "“EMULSION” (Riemann Trading ApS, priority 2006, published 2010)", "assay": "Determination of photo stability (Xenon arc lamp irradiation, HPLC of UV-filters)", "assay_type": "physicochemical", "conditions": "for photo stability (in words): 3 MED/2 h irradiation; for Content of UV-Filter Substances, After irradiation [3MED/2 h], Found [%]: Xenon arc lamp, 3 MED after two hours, HPLC; for Content of UV-Filter Substances, Before irradiation, Found [%]: in sample prepared as in Example 1, HPLC; for Content of UV-Filter Substances, After irradiation [3MED/2 h], [%] rel.: relative to content before irradiation", "source_text": "The test sample are weighed and distributed evenly and homogeneously with a brush onto the marked area of a glass plate.\nFor the Irradiation we use a Xenon arc lamp because the continuous spectrum in the UV-region is near—identical to that of—natural light. The lamp is turned on approximately one hour before Irradiation.\nThe glass plate Is positioned under the lamp so that the square with the test sample is maximally illuminated.\nThe distance (lamp-glass plate) is acquired with the aid of a calibrated hand radiometer (PMA 2100) with UV-B detector. The radiant Intensity of the lamp on the sample is set up so that an Irradiation dose of 3 MED (Minimal Erythemal Dose) is given after two hours.\nIn order to ascertain to which extent each of the Individual UV-filters in the tested formulations has been photometrically degraded, they are analytically quantified before and after irradiation.\nThe instrumental-analytical method used is HPLC\nSample is prepared as described in Example 1"}
{"compound": "CCCCCCOC(=O)c1ccccc1C(=O)c1ccc(N(CC)CC)cc1O", "note": "[Diethylamino Hydroxybenzoyl Hexyl Benzoate]", "values": [{"measurement": "photo stability (in words)", "value": "very good value of photo stability"}, {"measurement": "Content of UV-Filter Substances, After irradiation [3MED/2 h], Found [%]", "value": 1.21, "unit": "%"}, {"measurement": "Content of UV-Filter Substances, Before irradiation, Found [%]", "value": 1.29, "unit": "%"}, {"measurement": "Content of UV-Filter Substances, After irradiation [3MED/2 h], [%] rel.", "value": 93.8, "unit": "%"}]}
{"compound": "CCCCC(CC)COC(=O)C=Cc1ccc(OC)cc1", "note": "(stereo not drawn) [Ethylhexyl Methoxycinnamate]", "values": [{"measurement": "photo stability (in words)", "value": "relatively strong degradation"}]}
{"compound": "CCCCC(CC)COC(=O)C(C#N)=C(c1ccccc1)c1ccccc1", "note": "(stereo not drawn) [Octocrylene]", "values": [{"measurement": "photo stability (in words)", "value": "very good value of photo stability"}, {"measurement": "Content of UV-Filter Substances, After irradiation [3MED/2 h], Found [%]", "value": 9.35, "unit": "%"}, {"measurement": "Content of UV-Filter Substances, Before irradiation, Found [%]", "value": 9.98, "unit": "%"}, {"measurement": "Content of UV-Filter Substances, After irradiation [3MED/2 h], [%] rel.", "value": 93.7, "unit": "%"}]}
